# pIC50: −log10 of the molar value.
# Legend:
# [1] = test system: CCRF-CEM; experiment: CellTiter-Glo luminescent cell viability assay (ATP quantification), CCRF-CEM; format: cell-based; details: acute lymphoblastic leukemia cells, 72 h treatment, viable cells by ATP luminescence
# Description: (§1) Influence of the test compounds on viability (proliferation) of cell lines used was investigated in concentration range 0-100 μmol·l^−1.
# Suspension cell line CCRF-CEM is a permanent in vitro culture of acute lymphoblastic leukemia. CCRF-CEM cell line was cultivated in RPMI 1640 medium (Sigma-Aldrich, cat. no. R8758) with addition of 2 mmol·l^−1 glutamine (Invitrogen, cat. no. 35050-038), 10% fetal bovine serum (FBS, Sigma-Aldrich, cat. no. F9665), 100 IU/ml peniciline, 100 μg/ml streptomycine (Sigma-Aldrich, cat. no. P0781). Passaging was performed 2-3× a week. Population doubling time of CCRF-CEM cell line was 20 h under the cultivation conditions used.
# (§2) In order to test the sensitivity of the cell lines towards the studied helquats, cytotoxity test for cell viability assessment based on ATP quantification in cell lysates was used (CellTiter-Glo® Luminescent Cell Viability Assay, Promega, cat. no. G7571). In this test, ATP in cell lysates is detected using luciferase reaction. Luminescence intensity correlates with the ATP level and thus with quantity of metabolically active (viable) cells. IC50 value serves as the output, that is the concentration of the test compound which leads to 50% reduction in number of viable cells as compared to control, untreated population. To this end, IC50 value reflects efficiency of the test compound with regard to the given cell line.
# (§3) Cells in the exponential growth phase were seeded into a 96-well microtiter plate were plated at 3000 cells per well. Each well contained 90 μl of cell suspension. The next day, 10 μl of 10× concentrated test compound solutions were added. The effect of helquats was investigated in concentration range 1 to 100 μmol·l^−1 (e.g. 1; 2.5; 5; 7.5; 10; 15; 25; 50 and 100 μmol·l^−1). Apart from the section containing the concentration series of the test compound, each well contained 2 control columns, the first with pure medium (so called blank) and the second with cells in medium without the test compounds (control). Into wells containing controls and blanks, volume of solvent (water) equal to the volume of added compound solutions was added. After 72 h of incubation with the test compounds viability was determined according to the manufacturer's instructions. In short: microtiter well plate was left 30 min to reach the room temperature after it has been removed from the incubator. Then, into each well, 100 μl of the prepared detection agent was added. Next, the well plate was shaken for 2 min to complete the full lysis. Next, after the well had been left in the dark for 15 min, the luminescence was measured in each well using luminometer (Tecan Genios, Austria).
# (§4) IC50 value represents concentration of the test compound, which leads to 50% reduction of viable cells (inhibition of cell growth) after 72 h of the treatment. Each helquat concentration was tested in triplicates in a IC50 quantification and at least 3 independent IC50 quantification experiments were performed. IC50 values over 100 μmol·l^−1 were obtained by extrapolation of data measured in concentration range 0-100 μmol·l^−1 for the given helquat.
# [2] = test system: NHDF-Ad; experiment: CellTiter-Glo luminescent cell viability assay (ATP quantification), NHDF-Ad normal cells; format: cell-based; details: normal human dermal fibroblasts, 72 h treatment
# Source text: as §1
# Normal human dermal fibroblasts were cultivated without antibiotics in basal medium for fibroblasts (ATCC/LGC Standards, cat. no. PCS-201-030) with added “Fibroblast Growth Kit-Low serum” (ATCC/LGC Standards, cat. no. PCS-201-041) containing 2% FBS, L-glutamine, hydrocortisone, ascorbic acid, rh FGF beta, rh insulin. When 90% confluency was reached the fibroblasts were washed with sterile PBS (5 ml) and dissociated by addition of 0.25% solution of trypsin/EDTA (2 ml; 2 min; 37° C.). After that 5 ml of cultivation medium for fibroblasts was added and the cells were centrifuged (180×g, 7 min), the cell pellet was resuspended, and transferred in the amount needed into a new cultivation bottle with fresh medium. The same cell release procedure was applied when the cells were to be used in experiments. The cells were used in experiments between the 3rd and the 15th passage after defreeezing. Population doubling time of NHDF-Ad cell line was 33 h under the cultivation conditions used.
# as §2, §3, §4
# [3] = test system: HUVEC; experiment: CellTiter-Glo luminescent cell viability assay (ATP quantification), HUVEC normal cells; format: cell-based, human; details: 72 h treatment
# Description: as §1
# Normal human endothelial cells from umbilical vein are adherent cells cultivated in plastic Petri dishes coated with collagen I. Into the cultivation medium (E-STIM™; BD Biosciences, cat. co. 355054) already containing 2% FBS (fetal bovine serum), hydrocortisone and heparin the following two further ingredients were added: epidermal growth factor (EGF, 5 μg) and mixture of factors facilitating growth of endothelial cells (ECGS, 100 mg). […] The cells were passaged after reaching 90% confluency by dissociation using 0.25% solution of trypsin/EDTA (1 ml; 3 min; 37° C.). After that 5 ml of complete cultivation medium E-STIM™ was added and the cells were centrifuged (180×g, 7 min), the pellet was resuspended, and transferred in the amount needed into a new Petri dish with fresh medium. The cells were used in experiments between the 3rd and the 8th passage after defreezing. Population doubling time of HUVEC cell line was 38 h under the cultivation conditions used.
# as §2, §3, §4
# [4] = test system: HeLa; experiment: CellTiter-Glo luminescent cell viability assay (ATP quantification), HeLa; format: cell-based; details: cervical cancer cells, 72 h treatment, viable cells by ATP luminescence
# Description: as §1
# Adherent cell line HeLa is a permanent in vitro culture derived from cervical cancer. HeLa cell line was cultivated in RPMI 1640 medium (Dutch modification) (Sigma-Aldrich, cat. no. R7638) with addition of 2 mmol·l^−1 glutamine (Invitrogen, see above), 10% fetal bovine serum (FBS, Sigma-Aldrich, see above), 100 IU/ml peniciline, 100 μg/ml streptomycine (Sigma-Aldrich, see above). Passaging was performed twice a week. After washing of cells with sterile PBS the cells were released by 0.25% trypsin/EDTA (Sigma-Aldrich, cat. no. T4049) at 37° C. for 2 minutes. The trypsin was inactivated by addition of 2 volumes of complete medium, cells were then centrifuged (250×g, 5 min), the cell pellet was resuspended, and transferred in the amount needed into a new cultivation bottle with fresh medium. Population doubling time of […] cell line was 25 h under the cultivation conditions used.
# as §2, §3, §4
# [5] = test system: MOLT-4; experiment: CellTiter-Glo luminescent cell viability assay (ATP quantification), MOLT-4; format: cell-based; details: acute lymfoblastic leukemia cells, 72 h treatment, viable cells by ATP luminescence
# Description: as §1
# (§5) Suspension cell line MOLT-4 is a permanent in vitro culture of acute lymfoblastic leukemia. Linie MOLT-4 cell line was cultivated in RPMI 1640 medium (Sigma-Aldrich, see above) with addition of 2 mmol glutamine (Invitrogen, see above), 10% fetal bovine serum (FBS, Sigma-Aldrich, see above), 100 IU/ml peniciline, 100 μg/ml streptomycine (Sigma-Aldrich, see above). Passaging was performed 2-3× a week. Population doubling time of MOLT-4 cell line was 25 h under the cultivation conditions used.
# as §2, §3, §4
# [6] = test system: HL-60; experiment: CellTiter-Glo luminescent cell viability assay (ATP quantification), HL-60; format: cell-based; details: Homo sapiens, HL-60; acute promyelocytic leukemia cells, 72 h treatment, viable cells by ATP luminescence
# Description: as §1
# as §5, with “HL-60” for “MOLT-4”, “promyelocytic” for “lymfoblastic”, “HL-60” for “Linie MOLT-4”, “mmol·l^−1” for “mmol”, “23” for “25”
# as §2, §3, §4
# [7] = test system: LoVo; experiment: CellTiter-Glo luminescent cell viability assay (ATP quantification), LoVo; format: cell-based; details: Homo sapiens, LoVo, colorectal carcinoma cells, 72 h treatment
# Description: as §1
# Adherent cell line LoVo is a permanent in vitro culture derived from tissue of a patient with colorectal carcinoma. LoVo cell line was cultivated in DMEM medium (Sigma-Aldrich, cat. no. D8437) with addition of 2 mmol·l^−1 glutamine (Invitrogen, see above), 10% fetal bovine serum (FBS, Sigma-Aldrich, see above), 100 IU/ml peniciline, 100 μg/ml streptomycine (Sigma-Aldrich, see above). Passaging was performed twice a week. After washing of cells with sterile PBS, the cells were released by 0.25% trypsin/EDTA (Sigma-Aldrich, see above) at 37° C. for 2 minutes. The trypsin was inactivated by addition of 2 volumes of complete medium, cells were then centrifuged (250×g, 5 min), resuspended, and transferred in the amount needed into a new cultivation bottle with fresh medium. Population doubling time of LoVo cell line was 39 h under the cultivation conditions used.
# as §2, §3, §4
# [8] = Fibroblast, viable cells by ATP luminescence, class symbols
# [9] = HUVEC, normal human endothelial cells, numeric bound, values over 100 obtained by extrapolation of data measured at 0-100 μmol·l−1
# [10] = Fibroblast, numeric bound, values over 100 obtained by extrapolation of data measured at 0-100 μmol·l−1
# [11] = HUVEC, normal human endothelial cells from umbilical vein, viable cells by ATP luminescence, class symbols
# [12] = viable cells by ATP luminescence, class symbols
# [13] = numeric bound, values over 100 obtained by extrapolation of data measured at 0-100 μmol·l−1
SMILES,"pIC50 ([1]; Homo sapiens, CCRF-CEM)","pIC50 [2, 8]","pIC50 [3, 9]","pIC50 ([4]; Homo sapiens, HeLa)","pIC50 ([5]; Homo sapiens, MOLT-4)","pIC50 [2, 10]",pIC50 [6],"pIC50 [3, 11]","pIC50 [7, 12]","pIC50 [7, 13]",pIC50 [1],"pIC50 [2, 12]","pIC50 ([3]; normal human endothelial cells, numeric bound, values over 100 obtained by extrapolation of data measured at 0-100 μmol·l−1)",pIC50 [4],pIC50 [5]
"Cc1c(C)c2c(c3c1CC[n+]1ccc(/C=C/c4ccc(N(C)C)cc4)cc1-3)-c1c3ccccc3cc[n+]1CC2 (racemic) [(rac)-1, (rac)-(E)-13-(4-(dimethylamino)styryl)-6,7-dimethyl-4,5,8,9-tetrahydroiso-quinolino[1,2-a]pyrido[1,2-k][2,9]phenanthroline-3,10-diium trifluoromethanesulfonate]",4.30 to 4.96,3.82 to 4.29,< 3.82,4.30 to 4.96,4.30 to 4.96,–,–,–,–,–,–,–,–,–,–
"COc1ccc2cc(/C=C/c3cc[n+]4c(c3)-c3c(c(C)c(C)c5c3-c3c6ccccc6cc[n+]3CC5)CC4)ccc2c1 (racemic) [(rac)-7, (rac)-(E)-13-(2-(6-methoxynaphthalene-2-yl)vinyl)-6,7-dimethyl-4,5,8,9-tetrahydroisoquinolino[1,2-a]pyrido[1,2-k][2,9]phenanthroline-3,10-diium trifluoromethanesulfonate]",> 5.00,–,< 3.82,4.30 to 4.96,4.30 to 4.96,< 3.82,4.30 to 4.96,–,–,–,–,–,–,–,–
"C(=C\c1cc[n+]2c(c1)-c1c(ccc3c1-c1c4ccccc4cc[n+]1CC3)CC2)/c1cc2c3c(c1)CCCN3CCC2 (racemic) [(rac)-20, (rac)-(E)-13-(2-(1,2,3,5,6,7-hexahydropyrido[3,2,1-ij]quinolin-9-yl)vinyl)-4,5,8,9-tetrahydroisoquinolino[2,1-k]pyrido[2,1-a][2,9]phenanthroline-3,10-diium trifluoromethanesulfonate]",4.30 to 4.96,3.82 to 4.29,–,4.30 to 4.96,4.30 to 4.96,–,–,3.82 to 4.29,3.82 to 4.29,–,–,–,–,–,–
"CN(C)c1ccc(/C=C/c2cc[n+]3c(c2)-c2c(ccc4c2-c2cccc[n+]2CCC4)CCC3)cc1 (racemic) [(rac)-35, (rac)-(E)-2-(4-(dimethylamino)styryl)-6,7,8,11,12,13-hexahydrodipyrido[1,2-a:1′,2′-a′]benzo[2,1-c:3,4-c′]bisazepinediium trifluoromethanesulfonate]",3.82 to 4.29,–,< 3.82,3.82 to 4.29,3.82 to 4.29,< 3.82,–,–,–,< 3.82,–,–,–,–,–
"CN(C)c1ccc(/C=C/c2cccc3[n+]2CCCc2ccc4c(c2-3)-c2cccc(/C=C/c3ccc(N(C)C)cc3)[n+]2CCC4)cc1 (racemic) [(rac)-41, (rac)-4,15-bis((E)-4-(dimethylamino)styryl)-6,7,8,11,12,13-hexahydro-dipyrido[1,2-a:1′,2′-a′]benzo[2,1-c:3,4-c′]bisazepinediium trifluoromethanesulfonate]",4.30 to 4.96,3.82 to 4.29,–,4.30 to 4.96,4.30 to 4.96,–,–,3.82 to 4.29,4.30 to 4.96,–,–,–,–,–,–
"Cc1c(C)c2c(c3c1CC[n+]1ccc(/C=C/c4ccc(N(C)C)cc4)cc1-3)-c1c3ccccc3cc[n+]1CC2 [(P)-1, (P)-(E)-13-(4-(dimethylamino)styryl)-6,7-dimethyl-4,5,8,9-tetrahydroiso-quinolino[1,2-a]pyrido[1,2-k][2,9]phenanthroline-3,10-diium trifluoromethanesulfonate]",–,–,–,–,–,–,–,–,–,–,4.30 to 4.96,3.82 to 4.29,< 3.82,4.30 to 4.96,4.30 to 4.96
"CN(C)c1ccc(/C=C/C=C/c2cc[n+]3c(c2)-c2c(ccc4c2-c2cccc[n+]2CC4)CC3)cc1 [compound 30, 2-((1E,3E)-4-(4-(dimethylamino)phenyl)buta-1,3-dien-1-yl)-6,7,10,11-tetrahydrodipyrido[2,1-a:1′,2′-k][2,9]phenanthroline-5,12-diium trifluoromethanesulfonate]",3.82 to 4.29,–,< 3.82,3.82 to 4.29,3.82 to 4.29,< 3.82,–,–,–,< 3.82,–,–,–,–,–

# From patent publication US9340543B2, “Helquat derivatives, preparation thereof, and use thereof as medicaments” (USTAV ORGANICKE CHEMIE A BIOCHEMIE AKADEMIE VED CR, V.V.I., priority 2013, dated 2016)
